Results on four sequences are retold here after paper PMC7857580, “Substitutional landscape of a split fluorescent protein fragment using high-density peptide microarrays” (PLoS ONE, 2021).

As a reminder, the Kd is the constant that tells how readily two partners part at equilibrium.

Ends that are not written are not given here.

For this experiment, the target named is LOO10-GFP (Aequorea victoria, UniProt P42212, S30R/Y39N/F64L/S65T/F99S/N105T/Y145F/M153T/V163A/I171V, form not given). Format: binding. To be noted: read-out: Kd (dissociation constant between s10 peptide and LOO10-GFP); 50 nM LOO10-GFP, 0-2500 nM peptide, assay buffer pH 8, overnight 4°C, read at 25°C; 390ex/506em (WT, H199Y) or 495ex/520em (T203Y, H199Y/T203Y); quadratic fit; 3 independent measurements. On the procedure: Fluorescence of each sample was measured at 390/506 nm for T203 variants and at 495/520 nm for Y203 variants, at 25°C, excitation slit 12 nm, emission slit 20 nm and 10s integration time. The affinity experiments were performed in 3 independent replicas for each peptide variant. […] All fits were performed in OriginPro 2017.
LOO10-GFP, sequence (P42212 whole entry S30R/Y39N/F64L/S65T/F99S/N105T/Y145F/M153T/V163A/I171V, form open): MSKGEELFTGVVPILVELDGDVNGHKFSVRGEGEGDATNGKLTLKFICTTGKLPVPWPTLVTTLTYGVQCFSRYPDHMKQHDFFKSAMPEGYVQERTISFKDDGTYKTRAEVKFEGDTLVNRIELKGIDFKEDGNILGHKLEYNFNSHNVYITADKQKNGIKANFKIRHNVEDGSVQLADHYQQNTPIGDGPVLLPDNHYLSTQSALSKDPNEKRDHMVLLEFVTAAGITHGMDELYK
Consider NHYLSTQTVLS [WT], for which the Kd was found to be 280 ± 83 nM.

Turning to NHYLSYQTVLS [T203Y], the Kd amounted to 152 ± 47 nM.

Consider NYYLSTQTVLS [H199Y], for which the dissociation constant Kd came out at 53.4 ± 0.4 nM.

Turning to NYYLSYQTVLS [H199Y/T203Y], the dissociation constant (Kd) stood at 32.6 ± 6.3 nM.
